Measured values as given in ChEMBL document CHEMBL1129370, “Synthesis, ligand binding, and quantitative structure-activity relationship study of 3 beta-(4'-substituted phenyl)-2 beta-heterocyclic tropanes: evidence for an electrostatic interaction at the 2 beta-position” (J Med Chem, 1996).

Tests used:
[1] = biological target: T1, Sodium-dependent dopamine transporter (Rattus norvegicus, UniProt P23977); assay: Binding affinity against Dopamine transporter using [3H]WIN-35 428 in rat striatum; assay type: tissue-based
T1 sequence (P23977 whole entry): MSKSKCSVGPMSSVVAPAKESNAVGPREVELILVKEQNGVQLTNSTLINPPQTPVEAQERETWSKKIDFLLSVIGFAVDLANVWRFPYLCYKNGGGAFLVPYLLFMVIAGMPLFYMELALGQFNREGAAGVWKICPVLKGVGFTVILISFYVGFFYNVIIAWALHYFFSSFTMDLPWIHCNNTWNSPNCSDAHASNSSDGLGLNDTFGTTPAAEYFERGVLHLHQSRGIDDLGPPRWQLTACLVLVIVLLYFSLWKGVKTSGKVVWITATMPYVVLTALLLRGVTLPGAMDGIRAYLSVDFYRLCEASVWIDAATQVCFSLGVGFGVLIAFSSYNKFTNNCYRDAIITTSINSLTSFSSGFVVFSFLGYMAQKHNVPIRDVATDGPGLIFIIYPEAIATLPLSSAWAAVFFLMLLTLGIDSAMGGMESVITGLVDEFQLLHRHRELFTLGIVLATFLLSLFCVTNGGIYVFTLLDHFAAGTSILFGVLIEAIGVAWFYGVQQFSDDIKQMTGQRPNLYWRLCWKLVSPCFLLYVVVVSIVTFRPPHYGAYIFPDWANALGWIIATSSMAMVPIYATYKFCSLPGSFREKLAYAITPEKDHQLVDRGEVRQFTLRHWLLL

[2] = biological target: Sodium-dependent serotonin transporter (Rattus norvegicus, UniProt P31652); assay: Binding affinity against serotonin transporter using [3H]paroxetine in rat frontal cortex; assay type: tissue-based
Sodium-dependent serotonin transporter, sequence (P31652 whole entry): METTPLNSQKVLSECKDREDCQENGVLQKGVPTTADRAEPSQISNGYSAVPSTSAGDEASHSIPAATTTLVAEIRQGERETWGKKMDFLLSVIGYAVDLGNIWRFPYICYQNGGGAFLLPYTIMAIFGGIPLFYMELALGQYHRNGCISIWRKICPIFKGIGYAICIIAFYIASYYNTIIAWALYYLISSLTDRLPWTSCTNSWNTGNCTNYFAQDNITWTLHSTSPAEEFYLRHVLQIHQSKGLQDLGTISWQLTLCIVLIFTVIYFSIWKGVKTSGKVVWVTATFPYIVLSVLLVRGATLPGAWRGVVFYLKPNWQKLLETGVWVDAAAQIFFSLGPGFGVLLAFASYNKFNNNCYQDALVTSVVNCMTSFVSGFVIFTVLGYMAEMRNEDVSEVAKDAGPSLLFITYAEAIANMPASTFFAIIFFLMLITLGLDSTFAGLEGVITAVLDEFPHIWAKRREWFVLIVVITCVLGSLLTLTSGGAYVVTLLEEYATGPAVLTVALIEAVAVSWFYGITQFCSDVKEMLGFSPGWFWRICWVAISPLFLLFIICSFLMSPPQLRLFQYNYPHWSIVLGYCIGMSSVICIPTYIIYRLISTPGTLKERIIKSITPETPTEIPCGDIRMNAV

[3] = biological target: Norepinephrine transporter (Rattus norvegicus, UniProt Q9WTR4); assay: Binding affinity against Norepinephrine transporter using [3H]nisoxetine in midbrain of rat; assay type: tissue-based
Norepinephrine transporter, sequence (Q9WTR4 whole entry): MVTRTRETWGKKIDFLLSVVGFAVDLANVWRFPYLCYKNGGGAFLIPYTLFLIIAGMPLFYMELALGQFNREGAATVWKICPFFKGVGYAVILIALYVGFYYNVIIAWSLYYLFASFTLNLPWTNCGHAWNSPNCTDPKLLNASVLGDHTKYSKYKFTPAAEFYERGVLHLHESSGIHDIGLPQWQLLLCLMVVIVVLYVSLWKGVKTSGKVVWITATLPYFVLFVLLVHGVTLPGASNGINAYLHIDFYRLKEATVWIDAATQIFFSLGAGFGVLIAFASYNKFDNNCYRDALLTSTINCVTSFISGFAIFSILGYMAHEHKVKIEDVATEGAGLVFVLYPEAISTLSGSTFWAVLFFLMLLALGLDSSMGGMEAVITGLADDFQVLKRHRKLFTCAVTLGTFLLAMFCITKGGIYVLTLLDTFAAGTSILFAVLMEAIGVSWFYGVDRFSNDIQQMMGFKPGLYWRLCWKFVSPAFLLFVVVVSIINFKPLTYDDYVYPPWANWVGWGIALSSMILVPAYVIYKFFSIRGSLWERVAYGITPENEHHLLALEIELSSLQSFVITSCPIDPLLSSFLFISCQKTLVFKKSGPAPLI

[4] = biological target: T1, Sodium-dependent dopamine transporter; assay: Ability to inhibit [3H]dopamine uptake into rat striatal synaptosomes; assay type: subcellular, Brain
[5] = biological target: T1, Sodium-dependent dopamine transporter; assay: Ability to inhibition uptake of […]

Compound | IC50 [1] [nM] | IC50 [2] [nM] | IC50 [3] [nM] | Ki [4] [nM] | Ki [5] [nM]
Cc1ccc(C2C[C@H]3CCC([C@H]2c2nn[nH]n2)N3C)cc1 (some centres not stated) | 1560 | 43600 | 32500 | – | –
CN1C2CCC1[C@@H](c1nnc(-c3ccccc3)s1)C(c1ccc(Cl)cc1)C2 (some centres not stated) | 15.3 | 18400 | 4140 | – | –
Cc1ccc(C2C[C@H]3CCC([C@H]2c2cc(C)no2)N3C)cc1 (some centres not stated) | 0.93 | 3820 | 254 | – | –
CN1C2CC[C@@H]1CC(c1ccc(Cl)cc1)[C@H]2c1nc2ccccc2s1 (some centres not stated) | 188 | 5210 | 59500 | – | –
CN1C2CC[C@@H]1CC(c1ccc(Cl)cc1)[C@@H]2c1nnn[nH]1 (some centres not stated) | – | 5460 | 17400 | – | –
Cc1noc([C@H]2C(c3ccc(Cl)cc3)C[C@H]3CCC2N3C)n1 (some centres not stated) | – | 2580 | 363 | – | –
CN1C2CC[C@@H]1CC(c1ccc(I)cc1)[C@@H]2c1cc(-c2ccccc2)no1 (some centres not stated) | 2.57 | 100 | 868 | – | –
Cc1ccc(C2C[C@H]3CCC([C@H]2c2ncc(-c4ccccc4)o2)N3C)cc1 (some centres not stated) | 35.4 | 1700 | 677 | – | –
CN1C2CCC1[C@@H](c1ncc(-c3ccccc3)o1)C(c1ccc(Cl)cc1)C2 (some centres not stated) | 19.7 | 1120 | 496 | 19 | –
COC(=O)[C@@H]1C2CC[C@H](C[C@@H]1c1ccc(C)cc1)N2C | – | – | 60 | – | –
CN1C2CC[C@@H]1CC(c1ccc(Cl)cc1)[C@@H]2c1nnc(-c2ccccc2)o1 (some centres not stated) | 12.6 | 3300 | 929 | 18.7 | –
Cc1ccc(C2C[C@H]3CCC([C@H]2C(=O)Oc2ccccc2)N3C)cc1 (some centres not stated) | 3.26 | 24500 | 5800 | – | –
Cc1ccc(C2C[C@H]3CCC([C@H]2c2cc(-c4ccccc4)no2)N3C)cc1 (some centres not stated) | 1.58 | 5110 | 398 | – | –
CN1C2CC[C@@H]1CC(c1ccc(Cl)cc1)[C@@H]2C(=O)Oc1ccccc1 (some centres not stated) | 1.98 | 2300 | 2950 | – | 5.25
CN1C2CC[C@@H]1CC(c1ccc(Cl)cc1)[C@@H]2c1nc2ccccc2s1 (some centres not stated) | 1.37 | 1120 | 403 | – | –
Cc1cc([C@H]2C(c3ccc(Cl)cc3)C[C@H]3CCC2N3C)on1 (some centres not stated) | 0.59 | 572 | 181 | – | –
Cc1ccc(C2C[C@H]3CCC([C@@H]2c2nnc(-c4ccccc4)o2)N3C)cc1 (some centres not stated) | 523 | 65000 | 48700 | – | –
Cc1ccc(C2C[C@H]3CCC([C@H]2c2nc(-c4ccccc4)no2)N3C)cc1 (some centres not stated) | 2.33 | 1070 | 60 | – | –
Cc1ccc(C2C[C@H]3CCC([C@H]2c2nnc(-c4ccccc4)o2)N3C)cc1 (some centres not stated) | 47.5 | 23300 | 1310 | – | –
CN1C2CC[C@@H]1CC(c1ccc(Cl)cc1)[C@@H]2c1ncc(-c2ccccc2)s1 (some centres not stated) | 5.71 | 10300 | 8560 | – | –
Cc1ccc(C2C[C@H]3CCC([C@H]2c2nnc(-c4ccccc4)s2)N3C)cc1 (some centres not stated) | 35.9 | 51500 | 24300 | – | –
Cc1cc([C@H]2C(c3ccc(I)cc3)C[C@H]3CCC2N3C)on1 (some centres not stated) | 0.73 | 36.4 | 67.9 | – | –
CN1C2CC[C@@H]1CC(c1ccc(Cl)cc1)[C@@H]2c1cc(-c2ccccc2)no1 (some centres not stated) | 1.28 | 2420 | 504 | 2.08 | –
CN1C2CCC1[C@@H](c1nc(-c3ccccc3)no1)C(c1ccc(Cl)cc1)C2 (some centres not stated) | 1.62 | 195 | 245 | 0.59 | –
CN1C2CC[C@@H]1CC(c1ccc(Cl)cc1)[C@H]2c1nnc(-c2ccccc2)o1 (some centres not stated) | 1100 | 19200 | 286000 | – | –
Cc1ccc(C2C[C@H]3CCC([C@H]2c2nnc(C)o2)N3C)cc1 (some centres not stated) | 4.45 | 4890 | 253 | – | –
CN1C2CC[C@@H]1CC(c1ccc(Cl)cc1)[C@@H]2C(=O)O (some centres not stated) | 2070 | 59500 | > 200000 | – | –
